For experiment [1], the target named is T1, c-Met (cytoplasmic domain) (Homo sapiens, UniProt P08581).
T1 construct: 10 ng/mL c-Met (cytoplasmic domain, Invitrogen Corporation #PV3143); purchased Invitrogen Corporation PV3143
In words: c-Met Kinase Assay (same methods as for ALK, with modifications). It is filed as biochemical. The settings on record: 1 μM ATP (Km level), 10 ng/mL c-Met; read-out: cMet Activity (c-Met kinase inhibition, IC50 class). The method, boiled down: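 This plate-based kinase format uses immobilized phospholipase C-γ as substrate, phosphorylated by c-Met cytoplasmic domain (10 ng/mL) at 37° C for 15 minutes.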

The target of experiment [2] is T2, baculovirus-expressed ALK (Homo sapiens, UniProt Q9UM73).
T2 construct: host or cells: baculovirus expression system
As to the kind of experiment: ALK Kinase Assay (ELISA-type, time-resolved fluorescence). The settings on record: 1 μM ATP (Km level), 30 ng/ml ALK, 37° C., 15 minutes; read-out: ALK Activity (ALK kinase inhibition, IC50 class). It counts as biochemical. The method in brief:
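Substrate coating: phospholipase C-γ, 10 μg/mL in TBS. Kinase step: 30 ng/ml ALK, 15 min, 37° C. Detection and analysis: Eu-N1 PT66 antibody, with IC50 fitted as a sigmoidal variable-slope dose-response curve.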
(In general: ELISA stands for enzyme-linked immunosorbent assay.)

T1 sequence (P08581 956-1390 limits assumed): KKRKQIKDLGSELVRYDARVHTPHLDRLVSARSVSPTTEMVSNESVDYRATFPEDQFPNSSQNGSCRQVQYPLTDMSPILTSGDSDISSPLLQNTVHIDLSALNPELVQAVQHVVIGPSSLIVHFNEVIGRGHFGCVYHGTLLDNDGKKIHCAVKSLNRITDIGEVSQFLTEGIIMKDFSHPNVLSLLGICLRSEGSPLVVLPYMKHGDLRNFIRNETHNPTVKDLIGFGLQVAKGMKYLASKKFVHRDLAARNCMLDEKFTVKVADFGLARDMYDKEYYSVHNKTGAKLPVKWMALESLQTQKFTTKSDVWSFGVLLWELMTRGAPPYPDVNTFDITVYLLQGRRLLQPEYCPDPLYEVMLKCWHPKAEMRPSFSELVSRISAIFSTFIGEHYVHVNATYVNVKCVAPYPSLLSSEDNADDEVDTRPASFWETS
T2 sequence (Q9UM73 19-1620): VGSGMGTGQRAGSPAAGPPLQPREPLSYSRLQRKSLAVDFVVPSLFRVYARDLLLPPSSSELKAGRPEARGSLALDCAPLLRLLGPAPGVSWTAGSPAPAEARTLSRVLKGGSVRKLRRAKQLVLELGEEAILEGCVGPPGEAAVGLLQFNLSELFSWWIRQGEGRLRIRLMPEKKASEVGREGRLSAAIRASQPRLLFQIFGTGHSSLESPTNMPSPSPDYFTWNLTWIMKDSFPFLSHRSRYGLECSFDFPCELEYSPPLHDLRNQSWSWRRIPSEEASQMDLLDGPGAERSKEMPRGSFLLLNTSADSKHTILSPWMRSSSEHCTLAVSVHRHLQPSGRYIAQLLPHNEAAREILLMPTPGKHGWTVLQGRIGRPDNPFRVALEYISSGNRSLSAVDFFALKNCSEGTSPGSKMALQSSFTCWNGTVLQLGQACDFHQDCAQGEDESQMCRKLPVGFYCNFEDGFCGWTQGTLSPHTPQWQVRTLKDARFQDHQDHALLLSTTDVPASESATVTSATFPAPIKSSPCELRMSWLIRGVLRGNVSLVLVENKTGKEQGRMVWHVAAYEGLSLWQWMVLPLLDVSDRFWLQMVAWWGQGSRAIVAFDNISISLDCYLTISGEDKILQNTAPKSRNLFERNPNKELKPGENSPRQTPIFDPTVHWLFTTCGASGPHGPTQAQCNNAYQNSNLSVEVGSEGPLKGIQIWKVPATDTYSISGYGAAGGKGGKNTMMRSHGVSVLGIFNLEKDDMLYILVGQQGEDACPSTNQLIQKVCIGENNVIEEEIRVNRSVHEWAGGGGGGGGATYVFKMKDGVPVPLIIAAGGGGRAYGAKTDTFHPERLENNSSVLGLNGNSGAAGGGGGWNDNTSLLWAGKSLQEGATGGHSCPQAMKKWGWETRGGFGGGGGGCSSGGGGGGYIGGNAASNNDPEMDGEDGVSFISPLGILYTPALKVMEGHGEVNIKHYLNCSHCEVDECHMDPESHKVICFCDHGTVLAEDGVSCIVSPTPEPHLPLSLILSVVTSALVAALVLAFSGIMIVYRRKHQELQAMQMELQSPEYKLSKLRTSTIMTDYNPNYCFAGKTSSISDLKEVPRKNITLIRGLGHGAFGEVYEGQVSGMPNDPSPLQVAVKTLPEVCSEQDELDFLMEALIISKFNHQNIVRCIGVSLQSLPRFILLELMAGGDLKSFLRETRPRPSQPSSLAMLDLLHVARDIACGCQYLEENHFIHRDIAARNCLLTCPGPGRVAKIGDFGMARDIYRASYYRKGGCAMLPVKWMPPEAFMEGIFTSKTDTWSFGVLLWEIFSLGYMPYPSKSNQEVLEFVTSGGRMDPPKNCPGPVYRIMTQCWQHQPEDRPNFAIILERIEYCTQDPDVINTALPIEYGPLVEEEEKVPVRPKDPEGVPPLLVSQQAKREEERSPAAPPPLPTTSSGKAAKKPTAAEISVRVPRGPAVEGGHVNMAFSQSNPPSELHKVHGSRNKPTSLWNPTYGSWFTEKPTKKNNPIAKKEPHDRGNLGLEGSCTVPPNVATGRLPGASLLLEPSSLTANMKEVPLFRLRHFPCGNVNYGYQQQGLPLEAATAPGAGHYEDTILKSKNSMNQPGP

As to `COCCN1CCc2ccc(Nc3ncc(Cl)c(Nc4c(C)cccc4C(=O)NCC#N)n3)cc2CC1` [Example 1040, 2-{5-Chloro-2-[3-(2-methoxy-ethyl)-2,3,4,5-tetrahydro-1H-benzo[d]azepin-7-ylamino]-pyrimidin-4-ylamino}-N-cyanomethyl-3-methyl-benzamide], the IC50 in experiment [1] and in experiment [2] was 100 to 1000 nM each time.
Turning to `CC1(C)CCC(=O)Nc2ccc(Nc3ncc(Cl)c(Nc4c(F)cccc4C(=O)NCCC#N)n3)cc21` [Example 1041, 2-[5-Chloro-2-(5,5-dimethyl-2-oxo-2,3,4,5-tetrahydro-1H-benzo[b]azepin-7-ylamino)-pyrimidin-4-ylamino]-N-(2-cyano-ethyl)-3-fluoro-benzamide], the 50% inhibitory concentration (IC50) in experiment [1] was 100 to 1000 nM; in experiment [2] it was < 100 nM.
For `CN1C(=O)CCCc2cc(Nc3ncc(Cl)c(Nc4c(F)cccc4C(=O)NCCC#N)n3)ccc21` [Example 1042, 2-[5-Chloro-2-(1-methyl-2-oxo-2,3,4,5-tetrahydro-1H-benzo[b]azepin-7-ylamino)-pyrimidin-4-ylamino]-N-(2-cyano-ethyl)-3-fluoro-benzamide], in that order: < 100 nM and 100 to 1000 nM.
For `COCCN1CCc2ccc(Nc3ncc(Cl)c(Nc4c(F)cccc4C(=O)NCCC#N)n3)cc2CC1` [Example 1043, 2-{5-Chloro-2-[3-(2-methoxy-ethyl)-2,3,4,5-tetrahydro-1H-benzo[d]azepin-7-ylamino]-pyrimidin-4-ylamino}-N-(2-cyano-ethyl)-3-fluoro-benzamide], in that order: < 100 nM and 100 to 1000 nM.
Consider `CC1(C)CCC(=O)Nc2ccc(Nc3ncc(Cl)c(Nc4c(F)cccc4C(=O)NCC#N)n3)cc21` [Example 1044, 2-[5-Chloro-2-(5,5-dimethyl-2-oxo-2,3,4,5-tetrahydro-1H-benzo[b]azepin-7-ylamino)-pyrimidin-4-ylamino]-N-cyanomethyl-3-fluoro-benzamide], for which the IC50 in experiment [1] and in experiment [2] was < 100 nM throughout.
`CN1C(=O)CCCc2cc(Nc3ncc(Cl)c(Nc4c(F)cccc4C(=O)NCC#N)n3)ccc21` [Example 1045, 2-[5-Chloro-2-(1-methyl-2-oxo-2,3,4,5-tetrahydro-1H-benzo[b]azepin-7-ylamino)-pyrimidin-4-ylamino]-N-cyanomethyl-3-fluoro-benzamide]: the half-inhibitory concentration (IC50) in experiment [1] and in experiment [2] was < 100 nM in each case.
Regarding `N#CCNC(=O)c1cccc(F)c1Nc1nc(Nc2ccc3c(c2)CCCC(=O)N3)ncc1Cl` [Example 1046, 2-[5-Chloro-2-(2-oxo-2,3,4,5-tetrahydro-1H-benzo[b]azepin-7-ylamino)-pyrimidin-4-ylamino]-N-cyanomethyl-3-fluoro-benzamide], the concentration for half-maximal inhibition (IC50) in experiment [1] and in experiment [2] was < 100 nM throughout.
Turning to `COc1cc2c(cc1Nc1ncc(Cl)c(Nc3ccccc3S(=O)(=O)N(C)C)n1)CCC(N1CCOCC1)CC2` (stereo not drawn) [Example 1049, 2-[5-Chloro-2-(3-methoxy-7-morpholin-4-yl-6,7,8,9-tetrahydro-5H-benzocyclohepten-2-ylamino)-pyrimidin-4-ylamino]-N,N-dimethyl-benzenesulfonamide], the IC50 was > 10000 nM in experiment [1] and < 100 nM in experiment [2].
For `COc1cc2c(cc1Nc1ncc(Cl)c(Nc3ccccc3S(=O)(=O)C(C)C)n1)CCC(N1CCOCC1)CC2` (stereo not drawn) [Example 1050, 5-Chloro-N*2*-(3-methoxy-7-morpholin-4-yl-6,7,8,9-tetrahydro-5H-benzocyclohepten-2-yl)-N*4*-[2-(propane-2-sulfonyl)-phenyl]-pyrimidine-2,4-diamine] the same measures were > 10000 nM and < 100 nM.
For `COc1cc2c(cc1Nc1ncc(Cl)c(N[C@@H]3CCCC[C@H]3NS(C)(=O)=O)n1)CCC(N1CCOCC1)CC2` (stereo partly drawn) [Example 1051, N-{(1R,2R)-2-[5-Chloro-2-(3-methoxy-7-morpholin-4-yl-6,7,8,9-tetrahydro-5H-benzocyclohepten-2-ylamino)-pyrimidin-4-ylamino]-cyclohexyl}-methanesulfonamide], in that order: > 10000 nM and < 100 nM.
For `COc1cc2c(cc1Nc1ncc(Cl)c(Nc3ccccc3-n3cccn3)n1)CCC(N1CCOCC1)CC2` (stereo not drawn) [Example 1052, 5-Chloro-N*2*-(3-methoxy-7-morpholin-4-yl-6,7,8,9-tetrahydro-5H-benzocyclohepten-2-yl)-N*4*-(2-pyrazol-1-yl-phenyl)-pyrimidine-2,4-diamine] the same measures were > 10000 nM and < 100 nM.
`COc1cc2c(cc1Nc1ncc(Cl)c(Nc3ccccc3S(=O)(=O)N(C)C)n1)CCC(NCC(F)F)CC2` (stereo not drawn) [Example 1055, 2-{5-Chloro-2-[7-(2,2-difluoro-ethylamino)-3-methoxy-6,7,8,9-tetrahydro-5H-benzocyclohepten-2-ylamino]-pyrimidin-4-ylamino}-N,N-dimethyl-benzenesulfonamide]: the IC50 in experiment [1] was > 10000 nM; in experiment [2] it was < 100 nM.
For `COc1cc2c(cc1Nc1ncc(Cl)c(Nc3ccccc3S(=O)(=O)C(C)C)n1)CCC(NCC(F)F)CC2` (stereo not drawn) [Example 1056, 5-Chloro-N*2*-[7-(2,2-difluoro-ethylamino)-3-methoxy-6,7,8,9-tetrahydro-5H-benzocyclohepten-2-yl]-N*4*-[2-(propane-2-sulfonyl)-phenyl]-pyrimidine-2,4-diamine], in that order: 1000 to 10000 nM and < 100 nM.
For `COc1cc2c(cc1Nc1ncc(Cl)c(Nc3ccccc3-n3cccn3)n1)CCC(NCC(F)F)CC2` (stereo not drawn) [Example 1059, 5-Chloro-N*2*-[7-(2,2-difluoro-ethylamino)-3-methoxy-6,7,8,9-tetrahydro-5H-benzocyclohepten-2-yl]-N*4*-(2-pyrazol-1-yl-phenyl)-pyrimidine-2,4-diamine], the IC50 was > 10000 nM in experiment [1] and < 100 nM in experiment [2].
For `COCCN1CCc2ccc(Nc3ncc(Cl)c(Nc4c(OC)cccc4C(=O)NCCC#N)n3)cc2CC1` [Example 1060, 2-{5-Chloro-2-[3-(2-methoxy-ethyl)-2,3,4,5-tetrahydro-1H-benzo[d]azepin-7-ylamino]-pyrimidin-4-ylamino}-N-(2-cyano-ethyl)-3-methoxy-benzamide] the same measures were 1000 to 10000 nM and 1000 to 10000 nM.
In the case of `COc1cccc(C(=O)NCCC#N)c1Nc1nc(Nc2ccc3c(c2)C(C)(C)CCC(=O)N3)ncc1Cl` [Example 1061, 2-[5-Chloro-2-(5,5-dimethyl-2-oxo-2,3,4,5-tetrahydro-1H-benzo[b]azepin-7-ylamino)-pyrimidin-4-ylamino]-N-(2-cyano-ethyl)-3-methoxy-benzamide], the IC50 in experiment [1] is 1000 to 10000 nM; in experiment [2] it was > 10000 nM.
For `COc1cccc(C(=O)NCCC#N)c1Nc1nc(Nc2ccc3c(c2)CCCC(=O)N3C)ncc1Cl` [Example 1062, 2-[5-Chloro-2-(1-methyl-2-oxo-2,3,4,5-tetrahydro-1H-benzo[b]azepin-7-ylamino)-pyrimidin-4-ylamino]-N-(2-cyano-ethyl)-3-methoxy-benzamide] the same measures were 1000 to 10000 nM and > 10000 nM.
For `COCCN1CCc2ccc(Nc3ncc(Cl)c(Nc4c(OC)cccc4C(=O)NCC#N)n3)cc2CC1` [Example 1063, 2-{5-Chloro-2-[3-(2-methoxy-ethyl)-2,3,4,5-tetrahydro-1H-benzo[d]azepin-7-ylamino]-pyrimidin-4-ylamino}-N-cyanomethyl-3-methoxy-benzamide], in that order: 100 to 1000 nM and 1000 to 10000 nM.

The term IC50 denotes the concentration that gives 50% inhibition.
